Assays:
[1] = tested on: C57BL/6J mice; experiment: LPS-induced proteinuria in mice; format: in vivo, mouse
Description: The induction of proteinuria in female wild type C57BL/6J mice (n=6-13 per group) by LPS injection was performed as described. (Reiser et al., J Clin Invest, 2004; Yanagida-Asanuma et al., The American Journal of Pathology, 2007; Faul et al., Nat Med, 2008; Yu et al., The New England Journal of Medicine, 2013.) Briefly, 10 week old female mice were intraperitoneally injected with LPS (10 mg/kg, in saline). Control mice were injected with saline alone. Animals in the treatment groups were treated with vehicle or 10 mg/kg pyr (stock in DMSO) diluted in saline 2 h prior to the administration of LPS. Spot urine was collected from each group of animals for measurement of albuminuria as mg albumin per mg creatinine. (Faul et al., Nat Med, 2008) Results are expressed as mean±SEM. The mice were sacrificed and the efficacy of pyrintegrin was further analyzed by histochemical and immunofluorescence analyses.
For light microscopy, freshly harvested mouse kidney tissue was embedded in OCT, snap frozen in liquid nitrogen and stored at −80° C. Tissue sections were cut and fixed in −20° C. acetone before immunofluorescence staining. Sections were blocked at room temperature for 1 h and incubated with the primary antibodies against total β1 integrin (hamster anti-mouse, BioLegend), active β1 integrin (Lentner et al., PNAS, 1993.) (rat anti-mouse antibody 9EG7, BD Biosciences) and synaptopodin (polyclonal goat, SC-21537, Santa Cruz) at 4° C. overnight. Slides were incubated with appropriate fluorescently labeled secondary antibodies (Life Technologies, CA) and mounted with DAPI containing mounting solution (Vector Laboratories, Burlingame, Calif.). Fluorescence images were acquired using a Zeiss 700 LSM confocal microscope with a 20× objective and analyzed using the Zen software (Carl Zeiss Group, Hartford, Conn.). For transmission electron microscopy (TEM), tissues were fixed, embedded, sectioned, and stained as previously described. Nature Medicine, 2008.) Images were acquired using Zeiss SIGMA HD VP electron microscope. […]

[2] = target: T1, β1 integrin (Mus musculus, UniProt P09055); experiment: β1 integrin and active β1 integrin levels (antibody 9EG7) in PAN-treated murine podocytes; format: cell-based
T1 construct: we quantified the level of β1 in treated cells; endogenous in cells; host or cells: conditionally immortalized murine podocytes (from mouse line H-2Kb-tsA58)
Text: FIG. 9A-9E. An An β1-integrin agonist pyrintegrin (pyr) protects podocytes from damage. (A) The published chemical structure of pyr. (Xu et al. PNAS, 2010.) (B-D) Pyr protects podocytes from PAN-induced loss of F-actin fibers and focal adhesions and enhances active β1-integrin levels. (B) Graphs showing the effect of pyr on the number of F-actin fibers per cell and the number of vinculin spots per cell under each treatment condition. Data shown are means 6 SEMs per cell from three replicate wells (n=500-1000 cells per well). **P, 0.01; ***P, 0.001; ****P, 0.001. (C) Representative fluorescence images of murine podocytes after various treatments and after staining with phalloidin and antiactive β1 antibody. Two-color costained images show cells stained with phalloidin (red) and anti-active β1 antibody 9EG7 (green). Images were acquired using the Opera HCS System. […] Data shown are means±SEMs per cell from four to five replicate wells (n=500-1000 cells per well). Scale bar, 50 μm. *P, 0.01; **P, 0.001. (D) Representative fluorescence images of human podocytes after various treatments as shown. Images show cells stained with phalloidin (red) and anti-active β1-integrin antibody 12G10 (green). Images were acquired using the Opera HCS System. […] Data shown are medians±SEMs per cell from four to five replicate wells (n=500-1000 cells per well). Scale bar, 50 μm. **P, 0.01; ***P, 0.001. (E) Pyr reduces injury-mediated increase in podocyte migration in a scratch wound-healing assay. Representative images (left panel) and a bar graph (right panel) showing confocal microscopy-based quantitation of the number of migrating podocytes in a scratch wound-healing assay Lines represent the wound margins at the beginning of the experiment (0 hours). The data presented in the graph are plotted as means±SEMs (n≧15). C, control. Scale bar, 50 μm. **P<0.01; ****P<0.001.
FIG. 16. […] The cellular damage was assessed after staining the cells with phalloidin, anti-paxillin and anti-integrin β1 antibodies and quantifying various cellular phenotypes using the HCS system. […]

T1 sequence (P09055 21-798): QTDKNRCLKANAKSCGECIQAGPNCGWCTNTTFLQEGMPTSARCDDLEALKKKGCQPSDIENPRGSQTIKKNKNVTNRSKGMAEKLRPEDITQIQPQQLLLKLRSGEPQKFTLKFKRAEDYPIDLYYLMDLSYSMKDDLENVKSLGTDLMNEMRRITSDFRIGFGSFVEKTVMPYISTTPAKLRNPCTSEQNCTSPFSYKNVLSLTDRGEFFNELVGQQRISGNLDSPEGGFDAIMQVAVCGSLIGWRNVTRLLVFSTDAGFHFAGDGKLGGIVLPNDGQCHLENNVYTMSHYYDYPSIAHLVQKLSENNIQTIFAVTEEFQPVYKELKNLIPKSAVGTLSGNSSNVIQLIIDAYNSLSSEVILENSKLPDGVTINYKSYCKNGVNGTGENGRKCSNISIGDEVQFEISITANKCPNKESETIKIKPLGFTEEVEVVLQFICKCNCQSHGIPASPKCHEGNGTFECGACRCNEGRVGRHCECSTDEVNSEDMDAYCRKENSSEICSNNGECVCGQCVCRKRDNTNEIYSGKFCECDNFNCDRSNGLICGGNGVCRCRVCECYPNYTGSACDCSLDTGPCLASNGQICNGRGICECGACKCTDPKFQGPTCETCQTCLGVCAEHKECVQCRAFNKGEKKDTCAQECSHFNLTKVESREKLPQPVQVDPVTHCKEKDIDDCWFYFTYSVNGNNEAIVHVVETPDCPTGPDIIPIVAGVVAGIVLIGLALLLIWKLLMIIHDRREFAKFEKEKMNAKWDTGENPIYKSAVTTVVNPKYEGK
T1 sequence (Q62470 33-1053 partner): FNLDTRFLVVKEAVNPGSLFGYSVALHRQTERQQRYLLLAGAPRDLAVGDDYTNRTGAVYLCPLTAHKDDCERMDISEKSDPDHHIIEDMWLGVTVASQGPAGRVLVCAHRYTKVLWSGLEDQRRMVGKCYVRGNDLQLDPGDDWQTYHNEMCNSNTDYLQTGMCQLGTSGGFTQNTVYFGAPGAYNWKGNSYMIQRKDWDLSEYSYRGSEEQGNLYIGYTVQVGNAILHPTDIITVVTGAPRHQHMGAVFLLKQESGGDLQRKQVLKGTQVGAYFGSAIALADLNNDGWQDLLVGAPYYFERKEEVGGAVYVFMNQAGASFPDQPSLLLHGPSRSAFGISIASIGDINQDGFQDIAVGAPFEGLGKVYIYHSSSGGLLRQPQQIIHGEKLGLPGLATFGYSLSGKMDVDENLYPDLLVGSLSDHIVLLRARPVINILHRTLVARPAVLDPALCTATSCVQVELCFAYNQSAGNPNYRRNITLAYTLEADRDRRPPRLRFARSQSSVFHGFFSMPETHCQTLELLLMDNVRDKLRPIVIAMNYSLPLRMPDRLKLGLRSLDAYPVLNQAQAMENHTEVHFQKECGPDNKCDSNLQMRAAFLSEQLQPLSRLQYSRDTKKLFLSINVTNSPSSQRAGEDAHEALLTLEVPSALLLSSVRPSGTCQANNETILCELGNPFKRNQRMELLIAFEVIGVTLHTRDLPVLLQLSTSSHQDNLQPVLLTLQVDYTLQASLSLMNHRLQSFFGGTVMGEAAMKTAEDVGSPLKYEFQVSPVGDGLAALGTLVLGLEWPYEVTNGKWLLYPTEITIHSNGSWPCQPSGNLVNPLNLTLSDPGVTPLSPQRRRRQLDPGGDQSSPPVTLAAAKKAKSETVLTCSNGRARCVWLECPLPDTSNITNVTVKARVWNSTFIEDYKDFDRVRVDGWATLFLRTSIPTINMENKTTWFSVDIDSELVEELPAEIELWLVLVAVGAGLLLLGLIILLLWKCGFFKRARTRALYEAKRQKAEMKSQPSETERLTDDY

O=S(=O)(NCC1CC1)c1ccc(Nc2nccc(N3CCCc4cc(O)ccc43)n2)cc1 [Pyrintegrin]
proteinuria, albumin per creatinine in urine ([1]; C57BL/6 mice, LPS 10 mg/kg i.p., pyrintegrin 10 mg/kg, 24 hours): 0.668±0.074 mg albumin per 1 mg creatinine
active β1 integrin levels in glomeruli (antibody 9EG7) ([1]; mice, 24 hours after LPS, confocal microscopy): significant protection of the active β1 levels
protection from LPS-induced podocyte FP effacement ([1]; mice, pyrintegrin 10 mg/kg, electron microscopy): significant protection
β1 levels in podocytes ([2]; PAN 30 μg/mL, pyr 1 μM cotreatment, 48 h (FIG. 16)): preserved
active β1 levels in podocytes (antibody 9EG7) ([2]; PAN cotreatment): significant loss of active β1 levels in podocytes but not on treatment with pyrintegrin
active β1 levels in healthy cells ([2]; healthy cells, no PAN): significant increase in active β1 levels

Reference: patent US20170269060A1, “Assays and Compounds to Treat Kidney Diseases” (Rush University Medical Center, priority 2014, published 2017)
